The subject of data set [1] is MCF-7, MDA-MB-231, HeLa, and HCT-116. Conditions: cited from earlier work.
In another data set the test system is HeLa. Kind of data set: MTT cytotoxicity assay, HeLa. The class given is cell-based, human. Conditions: mean ± SD. The protocol:
(§1) Three cancer cell lines (MDA-MB-231, HCT116 and HeLa; i.e., human breast cancer cells, human colorectal cancer cells, and human cervical cancer cells, respectively), and one non-malignant fibroblast MRC-5 cell line (control) were used in this study. The American Type Cell Collection (ATCC, Manassas, VA, USA) provided all examined cell lines. The cells were grown in a complete medium made up of high-glucose DMEM media supplemented with 10% fetal bovine serum and […] L-glutamine (both from Sigma-Aldrich, USA). The cells were cultured in 25 cc flasks (Thermo Fischer Scientific, Waltham, MA, USA) at 37 °C with 100% humidity in a 5% CO2 atmosphere.
(§2) The MTT test was used to assess the cytotoxicity of compounds 1–14 [44]. The cytotoxicity of naproxen was also investigated due to its clinical use and structural similarity. Throughout the exponential development period, cells were taken from culture flasks and counted, and 5 × 10^3 cells/well were planted into 96-well culture plates. Following that, the cell lines were treated with varying doses of the investigated chemicals (1–14), naproxen ([…]), and fresh complete media as a control. All evaluated cells were incubated for 24, 48, and 72 h at 37 °C in an environment containing 5% CO2 and 100% humidity. Following incubation, each well’s culture media was taken out, each well received an addition of MTT solution at a final concentration of 0.5 mg/mL, and the cells were left to incubate for an additional four hours. The MTT solution was then withdrawn carefully, and the formazan crystals were dissolved in DMSO. After shaking the plates for 10 min, absorbance at 595 nm was measured using a multiplate reader (Zenyth 3100, Anthos Labtec Instruments, Salzburg, Austria). All concentrations of the tested compounds were performed in three separate wells of the microtiter plates and in three separate experiments. The results were reported as a ratio to the control value, untreated cells. IC50 values were also determined using Microsoft Office Excel 2021. The percentage of viable cells was estimated by dividing the readout absorbance value in the wells containing treated cells by the average absorbance value measured in the wells containing untreated cells, and multiplying the result by 100 [44]. % of the viable cells = ((absorbance of treated cell-absorbance of blank)/(absorbance of untreated cell-absorbance of blank)) × 100(3)
In general terms: Formazan colour is commonly taken as a measure of viable cells.

Data set [2] concerns MRC-5 fibroblast cell line. Kind of data set: MTT cytotoxicity assay, MRC-5. It counts as cell-based. Conditions: for IC50: mean ± SD. The protocol: as §1, §2
A further data set relates to MDA-MB-231. Kind of data set: MTT cytotoxicity assay, MDA-MB-231. The class given is cell-based, human. The following applies: mean ± SD. The protocol:
as §1, §2

For a further data set, the target named is T1, 5-LOX (Homo sapiens, UniProt P09917).
T1 construct: purchased Abcam
T1 sequence (P09917 1-674): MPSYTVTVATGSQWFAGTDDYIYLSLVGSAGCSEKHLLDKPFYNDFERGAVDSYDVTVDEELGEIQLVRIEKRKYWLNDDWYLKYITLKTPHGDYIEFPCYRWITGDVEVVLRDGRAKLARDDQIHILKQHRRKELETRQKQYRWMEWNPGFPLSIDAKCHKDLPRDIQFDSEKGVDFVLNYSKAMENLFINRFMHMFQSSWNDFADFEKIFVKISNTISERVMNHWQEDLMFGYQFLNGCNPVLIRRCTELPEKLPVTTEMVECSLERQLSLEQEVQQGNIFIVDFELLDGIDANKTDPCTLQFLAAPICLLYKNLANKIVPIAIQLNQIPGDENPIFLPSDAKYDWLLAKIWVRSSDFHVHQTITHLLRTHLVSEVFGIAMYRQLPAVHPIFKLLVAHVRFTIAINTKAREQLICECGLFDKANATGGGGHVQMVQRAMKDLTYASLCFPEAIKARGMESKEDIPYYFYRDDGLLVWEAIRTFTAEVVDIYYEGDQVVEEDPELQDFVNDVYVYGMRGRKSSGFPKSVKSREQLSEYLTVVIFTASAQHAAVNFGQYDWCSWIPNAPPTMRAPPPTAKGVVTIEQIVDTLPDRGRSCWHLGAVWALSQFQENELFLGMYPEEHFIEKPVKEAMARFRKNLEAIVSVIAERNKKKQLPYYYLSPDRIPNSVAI
Also noted: method as in PMID 37242450. The following applies: among compounds 1–5, previously published study ref 37; cited from earlier work.

Another data set deals with HCT 116. Kind of data set: MTT cytotoxicity assay, HCT 116. The following applies: for IC50: mean ± SD. It counts as cell-based, human. The protocol: as §1, §2
Data set [3] deals with carrageenan-induced rat paw edema. Kind of data set: Carrageenan-induced rat paw edema model. It counts as in vivo. Conditions: for Rat Paw Thickness: mean ± SD; for inhibition in vivo at 2.5 mg/kg / inhibition in vivo at 5 mg/kg / inhibition in vivo at 10 mg/kg: Rattus norvegicus. The protocol: The Carrageenan-induced rat paw edema model was used to assess the anti-inflammatory potential of novel compounds 8–14. Induction of inflammation was performed in all animals by intraplantar injection of […] 0.5% carrageenan saline into the left hind paw.
Animals (n = 200) were randomly divided into the following groups: control groups, that received either 1% DMSO or naproxen, and experimental groups, that received the novel compounds 8–14.
Control groups included DMSO and naproxen groups. Rats belonging to the DMSO group received 1% DMSO in the same volume as the compounds 8–14, 60 min before carrageenan injection. Moreover, naproxen groups included rats that were subjected to naproxen treatment in three doses: 2.5 mg/kg, 5 mg/kg, and 10 mg/kg. Naproxen was applied in the same manner as 1% DMSO.
Experimental groups included rats that were treated with compounds 8–14 and they were divided into three subgroups depending on the applied dose: 2.5 mg/kg, 5 mg/kg, and 10 mg/kg. The examined compounds were dissolved in 1% DMSO prior to treatment and applied to rats 60 min before inducing inflammation, i.e., before carrageenan injection. Doses of naproxen and investigated compounds were defined based on our previously published research.
In order to quantify the anti-inflammatory effects of the tested compounds, left paw thickness was measured at specific time points: prior to inflammation induction (moment 0) and 1, 2, 3, and 4 h (moments 1, 2, 3, and 4) following carrageenan injection. Tissue thickness was measured in the middle of the rat paw using a Digital Vernier caliper (Aerospace, China). The percentage of inhibition of paw edema after treatment with different agents was calculated according to the formula, Equation (2):% Inhibition = 100 × [1 − (Yt/Yc)](2) where Yt = average increase in paw thickness in the treated group of rats between two measurement moments, and Yc = average increase in paw thickness in the untreated group of rats between two measurement moments.
On the technique in general: Carrageenan injected into the paw causes an acute inflammation.

Setting [4] is: read-out: IC50 (cytotoxic activity of reference drugs), range over MCF-7, MDA-MB-231, HeLa, and HCT-116.

Where two headings read alike, the source gives them in different places.

We go through 5 compounds from paper PMC10820527, “Synthesis, Characterization, and Investigation of Anti-Inflammatory and Cytotoxic Activities of Novel Thiourea Derivatives of Naproxen” (Pharmaceutics, 2023).

In general, IC50 refers to the concentration that gives 50% inhibition. The term inhibition in vivo denotes the share of the control response that was lost under treatment. The low end stands for a response near the control, the high end for a response far below the control.

As to `CN(C)C/C=C/C(=O)Nc1cc2c(Nc3ccc(F)c(Cl)c3)ncnc2cc1O[C@H]1CCOC1` [afatinib], the IC50 in data set [1] is 6.2 to 11.4 µM.

As for `Cc1ccc(-c2cc(C(F)(F)F)nn2-c2ccc(S(N)(=O)=O)cc2)cc1` [celecoxib], in data set [1] (setting [4]), the IC50 is 22.8 to 42.7 µM.

Turning to `COc1cccc(NC(=S)NC(=O)[C@@H](C)c2ccc3cc(OC)ccc3c2)c1` [Compound 4], the IC50 is greater than 200 µM with HeLa (24 h); 101 ± 12.2 µM with HeLa (48 h); 90.8 ± 8.3 µM in the data set on HeLa (72 h); greater than 200 µM in data set [2] (24 h); greater than 200 µM in data set [2] (48 h); greater than 200 µM in data set [2] (72 h). In addition, the 50% inhibitory concentration (IC50) in the data set with MDA-MB-231 (24 h) is greater than 200 µM; with MDA-MB-231 (48 h) it was greater than 200 µM; with MDA-MB-231 (72 h), 110 ± 12.9 µM; with HCT 116 (48 h), 106 ± 12.9 µM; in the data set on HCT 116 (72 h), 71.6 ± 9.9 µM. In addition, the “5-LOX inhibition (in words)” value on 5-LOX was “strongest 5-LOX inhibition”. Besides, the “Cytotoxic effect against the HCT 116 cell line (in words)” value with HCT 116 was “moderate cytotoxic effects”.

With `COc1ccc2cc([C@H](C)C(=O)O)ccc2c1` [Naproxen, naproxen], the IC50 in the data set with HeLa (Homo sapiens, HeLa, 24 h) was greater than 200 µM; with HeLa (Homo sapiens, HeLa, 48 h) it was greater than 200 µM; in the data set on HeLa (Homo sapiens, HeLa, 72 h) it was greater than 200 µM; in data set [2] (Homo sapiens, MRC5, 24 h) it was greater than 200 µM; in data set [2] (Homo sapiens, MRC5, 48 h), greater than 200 µM; in data set [2] (Homo sapiens, MRC5, 72 h) it was greater than 200 µM. Moreover, the IC50 with MDA-MB-231 (Homo sapiens, MDA-MB-231, 24 h, 24 h) is greater than 200 µM; in the data set on MDA-MB-231 (Homo sapiens, MDA-MB-231, 48 h, 48 h), greater than 200 µM; in the data set with MDA-MB-231 (Homo sapiens, MDA-MB-231, 72 h, 72 h) it was greater than 200 µM; in the data set with HCT 116 (Homo sapiens, HCT-116, 24 h), greater than 200 µM; in the data set on HCT 116 (Homo sapiens, HCT-116, 48 h) it was greater than 200 µM; in the data set on HCT 116 (Homo sapiens, HCT-116, 72 h) it was greater than 200 µM. In addition, in data set [2], the “Effect on the viability of the MRC-5 fibroblast cell line (in words)” value is “insignificant effect”. For the same compound, the “Rat Paw Thickness” value in data set [3] (2.5 mg/kg, 1 h after carrageenan) is listed as 6.35 ± 0.15 mm; in data set [3] (2.5 mg/kg, 2 h after carrageenan), 6.02 ± 0.15 mm; in data set [3] (2.5 mg/kg, 3 h after carrageenan), 5.75 ± 0.20 mm; in data set [3] (2.5 mg/kg, 4 h after carrageenan) it was 5.18 ± 0.20 mm; in data set [3] (5.0 mg/kg, 1 h after carrageenan) it was 6.02 ± 0.20 mm; in data set [3] (5.0 mg/kg, 2 h after carrageenan) it was 5.52 ± 0.30 mm. The “Rat Paw Thickness” value in data set [3] (5.0 mg/kg, 3 h after carrageenan) worked out at 5.22 ± 0.30 mm; in data set [3] (5.0 mg/kg, 4 h after carrageenan), 4.98 ± 0.24 mm; in data set [3] (10.0 mg/kg, 1 h after carrageenan) it was 5.88 ± 0.23 mm; in data set [3] (10.0 mg/kg, 2 h after carrageenan), 5.55 ± 0.45 mm; in data set [3] (10.0 mg/kg, 3 h after carrageenan), 5.35 ± 0.32 mm; in data set [3] (10.0 mg/kg, 4 h after carrageenan) it was 4.95 ± 0.35 mm. Also, the inhibition in vivo at 2.5 mg/kg is 19.7% in data set [3] (2.5 mg/kg, 1 h); 25.8% in data set [3] (2.5 mg/kg, 2 h); 26.1% in data set [3] (2.5 mg/kg, 3 h); 46.7% in data set [3] (2.5 mg/kg, 4 h). Besides, the inhibition in vivo at 5 mg/kg in data set [3] (5.0 mg/kg, 1 h) was 27.9%; in data set [3] (5.0 mg/kg, 2 h), 42.4%; in data set [3] (5.0 mg/kg, 3 h), 47.7%; in data set [3] (5.0 mg/kg, 4 h), 51.1%. For the same compound, the inhibition in vivo at 10 mg/kg in data set [3] (10.0 mg/kg, 1 h) was 36.1%; in data set [3] (10.0 mg/kg, 2 h), 43.9%; in data set [3] (10.0 mg/kg, 3 h), 45.9%; in data set [3] (10.0 mg/kg, 4 h), 57.8%.

On to `COc1cccc2c1C(=O)c1c(O)c3c(c(O)c1C2=O)C[C@@](O)(C(=O)CO)C[C@@H]3O[C@H]1C[C@H](N)[C@H](O)[C@H](C)O1` [doxorubicin], for which the IC50 in data set [1] (setting [4]) is 3.18 to 26.8 µM.
